In the first series the target is T1, human potassium Kv1.3 (Homo sapiens, UniProt P22001).
T1 construct: expressed in transfected cells; host or cells: stably transfected cells grown in serum-free medium for CHO cells (CHO inferred from the medium)
T1 sequence (P22001 whole entry): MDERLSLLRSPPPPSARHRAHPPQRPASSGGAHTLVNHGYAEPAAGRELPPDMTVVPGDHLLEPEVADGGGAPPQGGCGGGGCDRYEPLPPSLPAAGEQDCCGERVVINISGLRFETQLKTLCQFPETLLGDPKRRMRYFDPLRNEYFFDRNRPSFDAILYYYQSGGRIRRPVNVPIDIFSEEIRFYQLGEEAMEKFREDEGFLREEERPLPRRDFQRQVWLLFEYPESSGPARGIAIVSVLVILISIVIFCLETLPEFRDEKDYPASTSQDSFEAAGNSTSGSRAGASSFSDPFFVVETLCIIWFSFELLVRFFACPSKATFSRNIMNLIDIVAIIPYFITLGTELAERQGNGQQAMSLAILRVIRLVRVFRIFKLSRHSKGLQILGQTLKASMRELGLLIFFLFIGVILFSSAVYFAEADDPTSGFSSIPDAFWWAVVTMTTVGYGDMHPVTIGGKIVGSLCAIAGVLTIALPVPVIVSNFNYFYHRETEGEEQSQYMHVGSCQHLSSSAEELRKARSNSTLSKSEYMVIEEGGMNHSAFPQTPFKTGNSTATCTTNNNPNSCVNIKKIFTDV
The series is described as follows: Electrophysiological examination (whole-cell patch-clamp) of the Kv1.3-mediated potassium current in CHO cells. The series is classed as cell-based. Particulars: 10 μM example compound 1, time course. How it is done: 1. Electrophysiological Examination of Test Compounds on the KV1.3-Mediated Potassium Current
cDNA coding for the human potassium Kv1.3 was cloned into a standard vector. A C-terminal epitope-tag was introduced via PCR. The plasmid was sequenced and subsequently introduced into cells and a clonal cell line was established. Expression of protein was analyzed by means of immunofluorescence using antibodies directed against the epitope-tag.
Experiments were performed in CHO cells stably expressing the potassium Kv1.3 potassium channel. […]
Patch-clamp experiments were performed in the voltage-clamp mode (Hamill et al., 1981) and whole-cell currents were recorded. Patch pipettes were pulled from borosilicate glass tubes. Current signals were amplified and digitized by an EPC patch-clamp amplifier (HEKA-Electronics, Lambrecht, Germany), stored and analyzed on a personal computer using the Pulse/Pulsefit software (HEKA, Lambrecht, Germany). Experiments were conducted at room temperature.
For investigating effects and reversibility of a test compound on the Kv1.3 potassium channel, CHO cells were clamped at a holding potential (HP) of −80 mV. The following stimulation protocol (scheme 1) was applied successively and the induced currents have been recorded: […]
The application protocol of the test compound is depicted in scheme 2. […] Nonspecific current reduction was calculated and serves for correction procedures during data analysis. […] Effect of the test compound was analyzed between stimulus nos. […]
The appropriate experiment was selected from the data tree in the Pulse software. […] The leak current amplitude during the prepulse to −90 mV and the peak current amplitude of the test-pulse to +40 mV were measured by placing the cursors on the oscilloscope screen (FIG. 3). […]
FIG. 1: Kv1.3-mediated potassium current. […] The two cursors on the right indicate the range of the test pulse, where the peak current amplitude was evaluated (205-230 ms of the test pulse to +40 mV). The two cursors on the left indicate the area where the mean leak current was evaluated (100-140 ms of the test pulse to −90 mV). […]
As to `CN=C(NS(=O)(=O)c1ccc(Cl)cc1)N1C[C@H](c2ccccc2)C(c2ccc(Cl)cc2)=N1` [example compound 1], the “Effect on current amplitude (in words)” value was “significant current reduction”.

The same series, now with this note: in the presence of 0.1% BSA; fit of equation (4).
`CN=C(NS(=O)(=O)c1ccc(Cl)cc1)N1C[C@H](c2ccccc2)C(c2ccc(Cl)cc2)=N1` [example compound 1]: the “Hill coefficient nH” value turned out to be 0.72±0.22.

Staying with this series, now noted: over the tested concentrations.
`CN=C(NS(=O)(=O)c1ccc(Cl)cc1)N1C[C@H](c2ccccc2)C(c2ccc(Cl)cc2)=N1` [example compound 1]: the “Effect on outward Kv1.3-mediated current amplitudes (in words)” value was “reduced in a concentration-dependent manner”.

The next series has as its target T1, human potassium Kv1.3. Nature of the series: Potassium Kv1.3 autopatch electrophysiology method, percentage charge inhibition. The series is classed as cell-based. The settings on record: concentration not given (compounds made up at 1 μM and 10 μM). How it is done:
2. Electrophysiological Examination of Test Compounds on the Kv1.3-Mediated Potassium Current (Potassium Kv1.3 Autopatch Electrophysiology Method)
In another set of experiments, the inhibition of the potassium Kv1.3 channel has been measured.
Cells stably transfected with cDNA for human potassium Kv1.3 (in pcDNA3.1) were grown in Ex-cell 302 serum-free medium for CHO cells, supplemented with 10 μl/ml [100×] glutamine, 500 μg/ml G418, and 1% HT supplement (50×, hypoxanthine and thymidine). The cells were cultured in 350 ml spinner (Techne) spun at 80 rpm, at 37° C. in a water-saturated 5% CO2 incubator. The day of the preparation an aliquot of cells was 5 times diluted in fresh media and counted with a glass counting chamber type Malassez. Then six tubes of 10 ml were prepared at 6×10^6 c/ml. The tubes were then placed at 4° C. until their use.
The external bathing solution contained (in mM): 150 NaCl, 10 KCl, 1 MgCl2, 3 CaCl2 and 10 HEPES. The pH was adjusted to 7.4 with NaOH. Patch pipettes were filled with a pipette solution of composition (in mM): 100 K-Gluconate, 20 KCl, 1 MgCl2, 1 CaCl2, 10 HEPES, 11 EGTA, 5 ATP-Na2 and 2 Glutathione. The pH was adjusted to 7.2 with KOH. Using fresh 100 ml bathing solution, 0.05% BSA re-suspension solution (0.05 g BSA/100 ml bather) was prepared.
Compounds were dissolved in DMSO (100%) and made up in the external bather at concentrations of 1 μM and 10 μM. All experiments were conducted at room temperature.
Two tubes of cell suspension were centrifuged at 1000 rpm for 4 minutes at room temperature. 10 ml of supernatant was carefully aspirated and discarded from each tube, with care being taken not to aspirate the cell pellet sitting at the bottom of the tube. The cell pellet of each tube was broken-up by gentle manual agitation of the tube. 600 μl of re-suspension solution was added to the cell pellet, followed by a gentle trituration step to re-suspend the cells. Once re-suspended, 600 μl of solution per tube was removed from each tube, such that 1.2 ml of cell suspension was obtained in total and placed in a temperature-controlled cell hotel, set at either 4° C. or dew point. Cells were maintained in suspension in the hotel through gentle trituration every 30 s via an automatic cell suspension system.
Harvard borosilicate capillary glass (GC1507F-10, […], supplied in 100 mm lengths) was cut down to 24 mm lengths using a Dagen capillary cutter. Short (13 mm) patch pipettes were pulled using a 2-stage pull on a specially adapted DMZ pipette puller (Zeitz Instruments). Patch pipettes typically have resistances of 2.3-3.5 MΩ. As the patch pipettes were pulled in batches, pipette tip resistance was measured every tenth pipette using a Tenma meter in order to maintain consistency of tip resistance. Pulled pipettes were stored in Petri dish before filling.
Each pipette was fully back-filled (from the tip to the end) using the internal pipette solution and the pipette tip was dipped in Sigmacote (Sigma). The pipette was then precisely inserted, tip first, into a pipette holder using a custom-made, pneumatic insertion rig, with the blunt end of the patch pipette sitting proud of the bottom of the pipette holder.
Whole cell patch-clamp recordings (WCRs) were made using the AP2, which incorporates an EPC9 or EPC10 amplifier (HEKA, Germany) under control of Pulse software (v8.54 or v8.76, HEKA, Germany), the patch plate contact fixture, a Gilson autosampler for cell delivery (the cell sampler), a Gilson autosampler for drug preparation (the auto-sampler), the drug application system (DAS), a feedback-controlled suction device for enabling high resistance GΩ seals to be formed for the whole cell recording mode to be attained, a cell re-suspension system, a temperature-controlled cell hotel, a vacuum line and associated pumps for applying suction and for draining the patch plate wells of bather.
Under control of the AP2 software, automated patch-clamping was initiated. […]
As for `CNC(=NS(=O)(=O)N1CCC(O)CC1)N1CC(c2ccccc2)C(c2ccc(Cl)cc2)=N1` (stereo not shown), the “Inhibition of the Potassium Kv1.3 channel (%)” value (“Inhibition … (%)” for short) is 92.8%. As to `CC1=Nc2ccc(Cl)cc2S(=O)(=O)N1` [Diazoxide, reference compound], the “Inhibition … (%)” value stood at 46.5%.

Regarding `CN[C@@H](Cc1c[nH]c2ccccc12)C(=O)N1CC(c2ccccc2)C(c2ccc(Cl)cc2)=N1` (stereo partly shown), the “Inhibition … (%)” value was 87.8%. Turning to `CNC(=NS(=O)(=O)N(C)C)N1CC(c2cccc(F)c2)C(c2ccc(Cl)cc2)=N1` (stereo not shown), the “Inhibition … (%)” value turned out to be 88.1%. On the same count and under the same terms, for `CCCCCCC(C)(C)c1cc(OC)c([C@H]2C=C(CO)[C@H]3C[C@@H]2C3(C)C)c(OC)c1` [HU-308, reference compound] the value was 81.2%; for `Cc1c(C(=O)c2cccc3ccccc23)c2cccc3c2n1[C@H](CN1CCOCC1)CO3` [R(+)-WIN55212-2, reference compound], 81.5%. Take `CN1CCC(CNC(=NS(=O)(=O)c2ccc(Cl)cc2)N2CC(c3ccccc3)C(c3ccc(Cl)cc3)=N2)C1` (stereo not shown): the “Inhibition … (%)” value is recorded as 96.2%. For the compound `CON/C(=N\S(=O)(=O)c1ccc(Cl)cc1)N1C[C@H](c2cccc(F)c2)C(c2ccc(Cl)cc2)=N1`, the “Inhibition … (%)” value worked out at 76.0%. On the same count and under the same terms, for `CCN(CC)C(=O)c1cn(-c2ccc(Cl)cc2)c(-c2ccc(Cl)cc2Cl)n1` the value was 76.2%; for `O=S(=O)(N=C(NCCF)N1CC(c2ccccc2)C(c2ccc(Cl)cc2)=N1)c1ccc(Cl)cc1` (stereo not shown), 77.1%; for `Cc1c(C(=O)NN2CCCCC2)nn(-c2ccc(Cl)cc2Cl)c1-c1ccc(Cl)cc1` [Rimonabant, reference compound], 89.2%. Still for that read-out and setting: the value for `CN(C)CCNC(=NS(=O)(=O)N1CCCCC1)N1CC(c2ccccc2)C(c2ccc(Cl)cc2)=N1` (stereo not shown) was 58.4%; that for `CC1(NC2=NS(=O)(=O)c3sc(Cl)cc3N2)CC1` [NN414, reference compound] was 45.1%; that for `CNC(=NS(=O)(=O)c1ccc(Cl)cc1)N1CC(c2cccnc2)C(c2ccc(Cl)cc2)=N1` (stereo not shown) was 88.7%.

In the case of `CCc1c(C(=O)NN2CCCCC2)nn(-c2ccc(Cl)cc2Cl)c1-c1ccc(Br)cc1` [SR-147778, reference compound], the “Inhibition … (%)” value is 63.7%.

System in the next series: not listed separately
The series is described as follows: Solubility as noted during the Kv1.3 patch-clamp experiments. Particulars: bath solution; 0.1% BSA used to overcome it. Background: In patch-clamp work, channel activity is measured electrically.
As to `CN=C(NS(=O)(=O)c1ccc(Cl)cc1)N1C[C@H](c2ccccc2)C(c2ccc(Cl)cc2)=N1` [example compound 1], the “Solubility (in words)” value is “low solubility”.

(Values after patent publication US20070191357A1, “METHODS OF USING POTASSIUM CHANNEL INHIBITING COMPOUNDS” (priority 2005, published 2007).)
